The test system of data set [1] is DV-90. The experiment in a line: Downregulation of XIAP protein expression level in human DV-90 cells at 1 uM for 24 hrs by […] analysis. The class given is functional, cell-based. (In general: In qPCR the cycle at which signal appears reflects the starting amount.)
Data set [2] has as its system NCI-H1373. Kind of data set: Induction of TRAIL dependent apoptosis in human NCI-H1373 cells assessed as PARP cleavage by Western blot analysis. Format: functional, cell-based.
The subject of data set [3] is NCI-H1373. The experiment in a line: Induction of cell cycle arrest in human NCI-H1373 cells assessed as accumulation of cells at S phase at 1 uM for 24 hrs by DAPI staining analysis (reference value: 40%). Format: functional.
The test system of data set [4] is A549. Kind of data set: Downregulation of FLIP mRNA expression level in human A549 cells at 0.1 to 1 uM for 24 hrs by qRT-PCR analysis. The class given is functional, cell-based. Particulars: dose 0.1-1 µM.
The next data set concerns NCI-H1792. The experiment in a line: Downregulation of XIAP mRNA expression level in human NCI-H1792 cells at 0.1 to 1 uM for 24 hrs by qRT-PCR analysis. The settings on record: dose 0.1-1 µM. Format: functional, cell-based.
In data set [5] the test system is NCI-H1373. The experiment in a line: Induction of TRAIL dependent apoptosis in human NCI-H1373 cells assessed as early apoptotic cells at 1 uM in presence of […] by annexin V-PI staining based flow cytometric analysis (reference value: 0.5%). Format: functional. In general terms: Flow cytometry measures light scatter and fluorescence of single cells or particles in a stream.

Data set [6] has as its system NCI-H1373. Kind of data set: Induction of cell cycle arrest in human NCI-H1373 cells assessed as accumulation of cells at G2/M phase at 0.25 uM for 24 hrs by Click-iT EdU Alexa Fluor 647 flow cytometric assay kit analysis (reference value: 13%). The class given is functional.
The test system of data set [7] is NCI-H1373. The experiment in a line: Induction of cell cycle arrest in human NCI-H1373 cells assessed as accumulation of cells at S phase at 1 uM for 24 hrs by Click-iT EdU Alexa Fluor 647 flow cytometric assay kit analysis (reference value: 45%). The class given is functional.
Data set [8] deals with A549. The experiment in a line: Induction of apoptosis in human A549 cells assessed as late apoptotic cells at 1 uM by annexin V-PI based flow cytometric analysis (reference value: 2.5%). Format: functional.
Data set [9] has as its system DV-90. The experiment in a line: Induction of apoptosis in human DV-90 cells assessed as late apoptotic cells at 0.5 uM for 24 hrs by annexin V-PI staining based flow cytometric analysis (reference value: 11.4%). Format: functional.
The subject of data set [10] is NCI-H358. Kind of data set: Downregulation of c-MYC mRNA expression level in human NCI-H358 cells at 0.1 to 1 uM for 24 hrs by qRT-PCR analysis. Format: functional, cell-based. Particulars: dose 0.1-1 µM.
For data set [11], the system named is A549. The experiment in a line: Antitumor activity against human A549 cells assessed as test to control tumor ratio at 80 mg/kg, ip for 28 days relative to control. The class given is functional. The settings on record: time 28 day.
Data set [12] deals with A549. Kind of data set: Downregulation of c-MYC mRNA expression level in human A549 cells at 0.1 to 1 uM for 24 hrs by qRT-PCR analysis. The class given is functional, cell-based. The settings on record: dose 0.1-1 µM.
In data set [13] the test system is NCI-H1373. The experiment in a line: Induction of apoptosis in human NCI-H1373 cells assessed as early apoptotic cells at 2.5 uM for 24 hrs by annexin V-PI staining based flow cytometric analysis (reference value: 0.6%). Format: functional.
For data set [14], the system named is DV-90. The experiment in a line: Induction of apoptosis in human DV-90 cells assessed as necrotic cells at 0.5 uM for 24 hrs by annexin V-PI staining based flow cytometric analysis (reference value: 5.4%). Format: functional.
A short description of data set [15]: Toxicity in SCID mouse xenografted with human NCI-H1373 cells assessed as body weight loss at 50 mg/kg, ip measured on after 15 days relative to control. Format: organism-based. The settings on record: in vivo, 360 h, time 15 day. For orientation: A xenograft is tissue or cells of one species grown in another, often human tumour cells in immunodeficient mice.

In data set [16] the test system is DV-90. The experiment in a line: Induction of cell cycle arrest in human DV-90 cells assessed as accumulation of cells at G0/G1 phase at 1 uM for 24 hrs by Click-iT EdU Alexa Fluor 647 flow cytometric assay kit analysis (reference value: 44%). Format: functional.
Data set [17] has as its system NCI-H2030. Kind of data set: Downregulation of c-MYC mRNA expression level in human NCI-H2030 cells at 0.1 to 1 uM for 24 hrs by qRT-PCR analysis. Format: functional, cell-based. The settings on record: dose 0.1-1 µM.
Data set [18] deals with NCI-H2030. Kind of data set: Downregulation of c-MYC protein level in human NCI-H2030 cells at 100 to 5000 nM upto 24 hrs by Western blot analysis. Format: functional, cell-based. The settings on record: dose 100-5000 nM.
In data set [19] the test system is NCI-H1373. Kind of data set: Induction of TRAIL dependent apoptosis in human NCI-H1373 cells assessed as necrotic cells at 1 uM in presence of […] by annexin V-PI staining based flow cytometric analysis (reference value: 3.6%). Format: functional.
Data set [20] concerns NCI-H358. The experiment in a line: Downregulation of c-MYC protein expression level in human NCI-H358 cells at 1 uM for 24 hrs by […] analysis. Format: functional, cell-based.
Data set [21] concerns NCI-H1373. Kind of data set: Induction of apoptosis in human NCI-H1373 cells assessed as necrotic cells at 2.5 uM for 24 hrs by annexin V-PI staining based flow cytometric analysis (reference value: 5.5%). Format: functional.
For data set [22], the system named is DV-90. Kind of data set: Induction of cell cycle arrest in human DV-90 cells assessed as accumulation of cells at G2/M phase at 0.5 uM for 24 hrs by Click-iT EdU Alexa Fluor 647 flow cytometric assay kit analysis (reference value: 21%). Format: functional.
In data set [23] the test system is NCI-H1373. The experiment in a line: Induction of apoptosis in human NCI-H1373 cells assessed as early apoptotic cells at 2.5 uM for 24 hrs by annexin V-PI staining based flow cytometric analysis (reference value: 1.7%). Format: functional.
The subject of data set [24] is DV-90. Kind of data set: Induction of apoptosis in human DV-90 cells assessed as early apoptotic cells at 0.5 uM for 48 hrs by annexin V-PI staining based flow cytometric analysis (reference value: 1.0%).
Data set [25] has as its system NCI-H460. The experiment in a line: Induction of apoptosis in human NCI-H460 cells assessed as viable cells at 2.5 uM for 24 hrs by annexin V-PI staining based flow cytometric analysis (reference value: 92.8%). The class given is functional. Particulars: read-out: Activity.
The subject of data set [26] is DV-90. Kind of data set: Induction of apoptosis in human DV-90 cells assessed as early apoptotic cells at 2.5 uM for 48 hrs by annexin V-PI staining based flow cytometric analysis (reference value: 1.0%).
For data set [27], the system named is DV-90. Kind of data set: Induction of cell cycle arrest in human DV-90 cells assessed as accumulation of cells at G2/M phase at 1 uM for 24 hrs by Click-iT EdU Alexa Fluor 647 flow cytometric assay kit analysis (reference value: 25%). The class given is functional.
In data set [28] the test system is NCI-H1373. Kind of data set: Induction of cell cycle arrest in human NCI-H1373 cells assessed as accumulation of cells at G0/G1 phase at 1 uM for 24 hrs by Click-iT EdU Alexa Fluor 647 flow cytometric assay kit analysis (reference value: 45%). The class given is functional.
Data set [29] relates to NCI-H460. The experiment in a line: Induction of cell cycle arrest in human NCI-H460 cells assessed as accumulation of cells at S phase at 0.25 uM for 24 hrs by Click-iT EdU Alexa Fluor 647 flow cytometric assay kit analysis (reference value: 54%). The class given is functional.
The test system of data set [30] is DV-90. The experiment in a line: Induction of cell cycle arrest in human DV-90 cells assessed as accumulation of cells at G2/M phase at 0.25 uM for 24 hrs by Click-iT EdU Alexa Fluor 647 flow cytometric assay kit analysis (reference value: 25%). Format: functional.
Data set [31] has as its system NCI-H1373. Kind of data set: Induction of cell cycle arrest in human NCI-H1373 cells assessed as accumulation of cells at G0/G1 phase at 1 uM for 24 hrs by Click-iT EdU Alexa Fluor 647 flow cytometric assay kit analysis (reference value: 48%). Format: functional.

The source made the active and inactive calls. No cut-off for these calls is given here.

Here are results for 3 compounds from ChEMBL document CHEMBL5712891, “Inhibition of BET bromodomain-dependent XIAP and FLIP expression sensitizes KRAS-mutated NSCLC to pro-apoptotic agents” (Cell Death Dis, 2016).

For orientation: T/C means the ratio of treated to control. In the case of `Cc1sc2c(c1C)C(c1ccc(Cl)cc1)=N[C@@H](CC(=O)OC(C)(C)C)c1nnc(C)n1-2`, the result with DV-90 [1], with NCI-H1373 [2], in the data set with A549 [4], with NCI-H1792, with NCI-H358 [10] and in the data set with A549 [12] was Active. The outcome with NCI-H2030 [17] and in the data set with NCI-H358 [20] was Active. Further, the Activity was 7% in the data set with NCI-H1373 [3]; 6.1% in the data set on NCI-H1373 [5]; 16% with NCI-H1373 [6]; 7% in the data set on NCI-H1373 [7]; 1.2% with A549 [8]; 10.7% with DV-90 [9]. Further, the Activity with NCI-H1373 [13] is listed as 2.9%; in the data set on DV-90 [14], 25.4%; in data set [15] it was 5%; in the data set on DV-90 [16], 56%; in the data set on NCI-H1373 [19], 40.2%; with NCI-H1373 [21], 17.2%. Moreover, the T/C in the data set on A549 [11] amounted to 60%. The outcome in the data set on NCI-H2030 [18] was inactive.
Take `Cc1sc2c(c1C)C(c1ccc(Cl)cc1)=N[C@@H](CC(=O)Nc1ccc(O)cc1)c1nnc(C)n1-2` [BIRABRESIB]: the Activity turned out to be 25% with DV-90 [22], 1.8% with NCI-H1373 [23], 2.8% in the data set on DV-90 [24] and 2.6% in the data set with DV-90 [26]. For the same compound, the viability at 2.5 µM in the data set on NCI-H460 [25] was 90.4%.
With `CCNC(=O)C[C@@H]1N=C(c2ccc(Cl)cc2)c2cc(OC)ccc2-n2c(C)nnc21` [MOLIBRESIB], the Activity in the data set with DV-90 [27] was found to be 27%; in the data set on NCI-H1373 [28], 50%; with NCI-H460 [29], 56%; in the data set with DV-90 [30] it was 31%; with NCI-H1373 [31], 76%.
